Measurements: patent US20070191492A1, “Method for suppressing lung tumorigenesis” (Sumitomo Chemical Company, Limited, priority 2003, published 2007)

Tested on: lung tumorigenesis
Test: multi-organ carcinogenesis model in rats: suppression of lung tumorigenesis (histopathological examination of lung)
Assay type: in vivo, male F344 rat
Conditions: for Frequency of Animals having Tumors, Adenoma (animals with tumor / animals in group) / Frequency of Animals having Tumors, Adenoma (percent) / Frequency of Animals having Tumors, Carcinoma (animals with tumor / animals in group) / Frequency of Animals having Tumors, Carcinoma (percent) / Frequency of Animals having Tumors, Sum of Tumors (animals with tumor / animals in group) / Frequency of Animals having Tumors, Sum of Tumors (percent) / Tumor Multiplicity, Carcinoma (average number of tumors per individual ± standard deviation) / Tumor Multiplicity, Adenoma (average number of tumors per individual ± standard deviation) / Tumor Multiplicity, Sum of Tumors (average number of tumors per individual ± standard deviation): lung, 23 weeks
Protocol: With respect to the compound 1 (13α, 14α-epoxy-3β-methoxyserratan-21β-ol) obtained in Example 1, activities for suppressing or inhibiting lung tumorigenesis were measured using a multi-organ carcinogenesis model in rats.
Diethylnitrosamine dissolved in saline was once administered interperitoneally to each male F344 rat at 6 weeks of age (Charles River Japan, Inc.) at a dose of 100 mg/kg body weight wherein this day was made to be day 1 of the testing. In succession, N-methyl-N-nitrosourea dissolved in saline was administered interperitoneally at a dose of 20 mg/kg body weight at day 4, 8, 11 and 15 of the testing (total four times of dosing). Furthermore, dimethylhydrazine dissolved in saline was administered subcutaneously at a dose of 40 mg/kg body weight at day 18, 22, 25, 29, 32 and 36 of the testing (total six times of dosing). In parallel with administration of these carcinogens, drinking water into which 0.05% N-butyl-N-(4-hydroxybutyl)nitrosamine was dissolved was allowed to ingest to the F344 rat from day 1 of the testing for the following four weeks. Thereafter, drinking water into which around 0.1% of 2, 2′-dihydroxy-di-n-propylnitrosamine was dissolved was allowed to ingest to the F344 rat for over two weeks from the beginning of week 5 to the end of week 6 of the testing. With respect to the F344 rat treated with a variety of carcinogens as described above, administration of the compound 1 was started from the beginning of week 8 of the testing. The compound 1 was dissolved into corn oil and forcibly administered orally into stomach using a sonde at a dose of 5 or 10 mg/kg body weight. The administration was implemented at a frequency of once a day, five days in a week, and continued for twenty three weeks. As a reference, untreated groups to which no compound 1 was administered were provided. After elapsed thirty weeks from starting the testing, each F344 rat had been sacrified to isolate a lung, and histopathological examination was conducted on the lung thus isolated. With respect to neoplastic lesions, they were classified into a benign or malignant lesion, and a number of animals each having a benign tumor or a malignant tumor and a number of tumors were counted in each group.

[1] = 5 mg/kg orally once a day, five days a week, examined after 30 weeks
[2] = treated group vs untreated group, in words

## 13α, 14α-epoxy-3β-methoxyserratan-21β-ol [Compound 1]
[1]
  Frequency of Animals having Tumors, Adenoma (animals with tumor / animals in group): 11/20
  Frequency of Animals having Tumors, Adenoma (percent): 55%
5 mg/kg orally, P < 0.05
  Frequency of Animals having Tumors, Carcinoma (animals with tumor / animals in group): 1/20
  Frequency of Animals having Tumors, Carcinoma (percent): 5%
  Frequency of Animals having Tumors, Sum of Tumors (animals with tumor / animals in group): 11/20
  Frequency of Animals having Tumors, Sum of Tumors (percent): 55%
  Tumor Multiplicity, Carcinoma (average number of tumors per individual ± standard deviation): 0.05 ± 0.22
5 mg/kg orally, p < 0.01
  Tumor Multiplicity, Adenoma (average number of tumors per individual ± standard deviation): 0.70 ± 0.80
  Tumor Multiplicity, Sum of Tumors (average number of tumors per individual ± standard deviation): 0.75 ± 0.85
10 mg/kg orally
  Frequency of Animals having Tumors, Adenoma (animals with tumor / animals in group): 12/19
  Frequency of Animals having Tumors, Adenoma (percent): 67%
  Frequency of Animals having Tumors, Carcinoma (animals with tumor / animals in group): 5/19
  Frequency of Animals having Tumors, Carcinoma (percent): 28%
  Frequency of Animals having Tumors, Sum of Tumors (animals with tumor / animals in group): 13/19
  Frequency of Animals having Tumors, Sum of Tumors (percent): 72%
  Tumor Multiplicity, Carcinoma (average number of tumors per individual ± standard deviation): 0.29 ± 0.47
10 mg/kg orally, P < 0.05
  Tumor Multiplicity, Adenoma (average number of tumors per individual ± standard deviation): 1.00 ± 1.00
  Tumor Multiplicity, Sum of Tumors (average number of tumors per individual ± standard deviation): 1.22 ± 1.06
[2]
  frequency of animals each having tumor (adenoma or carcinoma) compared with the untreated group: lower value
  tumor multiplicity (adenoma or carcinoma) compared with the untreated group: lower value
